Test results published in PubChem BioAssay AID2060599 (Molecular Pharmacology Branch, DTP, NCI, 2025).
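Note: spheroids exposed to the agents for seven days before readout.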

Each compound was assayed on 817829-284-R-J1-PDC complex spheroids, viability (assay: Anticancer human tumor 817829-284-R-J1-PDC patient-derived colon adenocarcinoma cell line growth inhibition [CLK]). Settings: second compound 1 µM; first compound 0.316 µM; active compounds read low.
Outline: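 Multi-cell-type spheroids combined patient-derived tumor cells with HUVEC endothelial cells and human mesenchymal stem cells. Paired agents were dosed in half-log steps down from about clinical Cmax, or from 10 microM where Cmax was unknown.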
In the case of `C=C(F)C(=O)N1CCN(c2nc(OCC3CCCN3C)nc3c2CCN(c2cccc4cccc(Cl)c24)C3)CC1CC#N` (stereo unspecified) + CNC(=O)c1ccc(Nc2nc(OC3CCCC3)c3c(-c4ccc5nc(C)oc5c4)c[nH]c3n2)c(OC)c1, the viability, T/C is reported as 28%. `C=CC(=O)N1CCN(c2nc(=O)n(-c3c(C)ccnc3C(C)C)c3nc(-c4c(O)cccc4F)c(F)cc23)C(C)C1` (stereo unspecified) + CNC(=O)c1ccc(Nc2nc(OC3CCCC3)c3c(-c4ccc5nc(C)oc5c4)c[nH]c3n2)c(OC)c1 showed a viability, T/C of 18.2%. Work on `CCCS(=O)(=O)Nc1ccc(F)c(C(=O)c2c[nH]c3ncc(-c4ccc(Cl)cc4)cc23)c1F` + CNC(=O)c1ccc(Nc2nc(OC3CCCC3)c3c(-c4ccc5nc(C)oc5c4)c[nH]c3n2)c(OC)c1 yielded a viability, T/C of 18.6%. Compound `COC1C=CCC(C)C(C)S(=O)(=O)NC(=O)c2ccc3c(c2)N(CC2CCC21)CC1(CCCc2cc(Cl)ccc21)CO3` (stereo unspecified) + CNC(=O)c1ccc(Nc2nc(OC3CCCC3)c3c(-c4ccc5nc(C)oc5c4)c[nH]c3n2)c(OC)c1 has a viability, T/C of 19.9%.

Same assay, conditions: second compound 1 µM; first compound 1 µM; active compounds read low
With `C#Cc1c(F)ccc2cc(O)cc(-c3ncc4c(N5CC6CCC(C5)N6)nc(OCC56CCCN5CC(F)C6)nc4c3F)c12` (stereo unspecified) + CNC(=O)c1ccc(Nc2nc(OC3CCCC3)c3c(-c4ccc5nc(C)oc5c4)c[nH]c3n2)c(OC)c1 the viability, T/C was 38%. With `C=C(F)C(=O)N1CCN(c2nc(OCC3CCCN3C)nc3c2CCN(c2cccc4cccc(Cl)c24)C3)CC1CC#N` (stereo unspecified) + CNC(=O)c1ccc(Nc2nc(OC3CCCC3)c3c(-c4ccc5nc(C)oc5c4)c[nH]c3n2)c(OC)c1 the viability, T/C was 24.4%. `C=CC(=O)N1CCN(c2nc(=O)n(-c3c(C)ccnc3C(C)C)c3nc(-c4c(O)cccc4F)c(F)cc23)C(C)C1` (stereo unspecified) + CNC(=O)c1ccc(Nc2nc(OC3CCCC3)c3c(-c4ccc5nc(C)oc5c4)c[nH]c3n2)c(OC)c1 was tested, and the viability, T/C was 19.8%. Work on `CCCS(=O)(=O)Nc1ccc(F)c(C(=O)c2c[nH]c3ncc(-c4ccc(Cl)cc4)cc23)c1F` + CNC(=O)c1ccc(Nc2nc(OC3CCCC3)c3c(-c4ccc5nc(C)oc5c4)c[nH]c3n2)c(OC)c1 yielded a viability, T/C of 12.8%. For `COC1C=CCC(C)C(C)S(=O)(=O)NC(=O)c2ccc3c(c2)N(CC2CCC21)CC1(CCCc2cc(Cl)ccc21)CO3` (stereo unspecified) + CNC(=O)c1ccc(Nc2nc(OC3CCCC3)c3c(-c4ccc5nc(C)oc5c4)c[nH]c3n2)c(OC)c1, the viability, T/C was 17.6%.

Same assay, conditions: second compound 1 µM; first compound 3.16 µM; active compounds read low
`C#Cc1c(F)ccc2cc(O)cc(-c3ncc4c(N5CC6CCC(C5)N6)nc(OCC56CCCN5CC(F)C6)nc4c3F)c12` (stereo unspecified) + CNC(=O)c1ccc(Nc2nc(OC3CCCC3)c3c(-c4ccc5nc(C)oc5c4)c[nH]c3n2)c(OC)c1 gave a viability, T/C of 24.4%. `C=C(F)C(=O)N1CCN(c2nc(OCC3CCCN3C)nc3c2CCN(c2cccc4cccc(Cl)c24)C3)CC1CC#N` (stereo unspecified) + CNC(=O)c1ccc(Nc2nc(OC3CCCC3)c3c(-c4ccc5nc(C)oc5c4)c[nH]c3n2)c(OC)c1 was tested, and the viability, T/C was 5.74%. `C=CC(=O)N1CCN(c2nc(=O)n(-c3c(C)ccnc3C(C)C)c3nc(-c4c(O)cccc4F)c(F)cc23)C(C)C1` (stereo unspecified) + CNC(=O)c1ccc(Nc2nc(OC3CCCC3)c3c(-c4ccc5nc(C)oc5c4)c[nH]c3n2)c(OC)c1 was tested, and the viability, T/C was 20%. `CCCS(=O)(=O)Nc1ccc(F)c(C(=O)c2c[nH]c3ncc(-c4ccc(Cl)cc4)cc23)c1F` + CNC(=O)c1ccc(Nc2nc(OC3CCCC3)c3c(-c4ccc5nc(C)oc5c4)c[nH]c3n2)c(OC)c1 showed a viability, T/C of 11.6%. `COC1C=CCC(C)C(C)S(=O)(=O)NC(=O)c2ccc3c(c2)N(CC2CCC21)CC1(CCCc2cc(Cl)ccc21)CO3` (stereo unspecified) + CNC(=O)c1ccc(Nc2nc(OC3CCCC3)c3c(-c4ccc5nc(C)oc5c4)c[nH]c3n2)c(OC)c1 gave a viability, T/C of 6.44%.

Same assay, conditions: second compound 1 µM; first compound 10 µM; active compounds read low
`C#Cc1c(F)ccc2cc(O)cc(-c3ncc4c(N5CC6CCC(C5)N6)nc(OCC56CCCN5CC(F)C6)nc4c3F)c12` (stereo unspecified) + CNC(=O)c1ccc(Nc2nc(OC3CCCC3)c3c(-c4ccc5nc(C)oc5c4)c[nH]c3n2)c(OC)c1 showed a viability, T/C of 10%. With `C=C(F)C(=O)N1CCN(c2nc(OCC3CCCN3C)nc3c2CCN(c2cccc4cccc(Cl)c24)C3)CC1CC#N` (stereo unspecified) + CNC(=O)c1ccc(Nc2nc(OC3CCCC3)c3c(-c4ccc5nc(C)oc5c4)c[nH]c3n2)c(OC)c1 the viability, T/C was 0.07%. `C=CC(=O)N1CCN(c2nc(=O)n(-c3c(C)ccnc3C(C)C)c3nc(-c4c(O)cccc4F)c(F)cc23)C(C)C1` (stereo unspecified) + CNC(=O)c1ccc(Nc2nc(OC3CCCC3)c3c(-c4ccc5nc(C)oc5c4)c[nH]c3n2)c(OC)c1 showed a viability, T/C of 12.4%. Work on `CCCS(=O)(=O)Nc1ccc(F)c(C(=O)c2c[nH]c3ncc(-c4ccc(Cl)cc4)cc23)c1F` + CNC(=O)c1ccc(Nc2nc(OC3CCCC3)c3c(-c4ccc5nc(C)oc5c4)c[nH]c3n2)c(OC)c1 yielded a viability, T/C of 6.76%. Work on `COC1C=CCC(C)C(C)S(=O)(=O)NC(=O)c2ccc3c(c2)N(CC2CCC21)CC1(CCCc2cc(Cl)ccc21)CO3` (stereo unspecified) + CNC(=O)c1ccc(Nc2nc(OC3CCCC3)c3c(-c4ccc5nc(C)oc5c4)c[nH]c3n2)c(OC)c1 yielded a viability, T/C of 16%.

Same assay, conditions: second compound 3.16 µM; first compound 0.0316 µM; active compounds read low
With `C#Cc1c(F)ccc2cc(O)cc(-c3ncc4c(N5CC6CCC(C5)N6)nc(OCC56CCCN5CC(F)C6)nc4c3F)c12` (stereo unspecified) + CNC(=O)c1ccc(Nc2nc(OC3CCCC3)c3c(-c4ccc5nc(C)oc5c4)c[nH]c3n2)c(OC)c1 the viability, T/C was 24.8%. `C=C(F)C(=O)N1CCN(c2nc(OCC3CCCN3C)nc3c2CCN(c2cccc4cccc(Cl)c24)C3)CC1CC#N` (stereo unspecified) + CNC(=O)c1ccc(Nc2nc(OC3CCCC3)c3c(-c4ccc5nc(C)oc5c4)c[nH]c3n2)c(OC)c1 showed a viability, T/C of 20.7%. With `C=CC(=O)N1CCN(c2nc(=O)n(-c3c(C)ccnc3C(C)C)c3nc(-c4c(O)cccc4F)c(F)cc23)C(C)C1` (stereo unspecified) + CNC(=O)c1ccc(Nc2nc(OC3CCCC3)c3c(-c4ccc5nc(C)oc5c4)c[nH]c3n2)c(OC)c1 the viability, T/C was 22.4%. Compound `CCCS(=O)(=O)Nc1ccc(F)c(C(=O)c2c[nH]c3ncc(-c4ccc(Cl)cc4)cc23)c1F` + CNC(=O)c1ccc(Nc2nc(OC3CCCC3)c3c(-c4ccc5nc(C)oc5c4)c[nH]c3n2)c(OC)c1 has a viability, T/C of 16.4%. `COC1C=CCC(C)C(C)S(=O)(=O)NC(=O)c2ccc3c(c2)N(CC2CCC21)CC1(CCCc2cc(Cl)ccc21)CO3` (stereo unspecified) + CNC(=O)c1ccc(Nc2nc(OC3CCCC3)c3c(-c4ccc5nc(C)oc5c4)c[nH]c3n2)c(OC)c1 showed a viability, T/C of 19.7%.

Same assay, conditions: second compound 3.16 µM; first compound 0.1 µM; active compounds read low
In the case of `C#Cc1c(F)ccc2cc(O)cc(-c3ncc4c(N5CC6CCC(C5)N6)nc(OCC56CCCN5CC(F)C6)nc4c3F)c12` (stereo unspecified) + CNC(=O)c1ccc(Nc2nc(OC3CCCC3)c3c(-c4ccc5nc(C)oc5c4)c[nH]c3n2)c(OC)c1, the viability, T/C is reported as 20.4%. Work on `C=C(F)C(=O)N1CCN(c2nc(OCC3CCCN3C)nc3c2CCN(c2cccc4cccc(Cl)c24)C3)CC1CC#N` (stereo unspecified) + CNC(=O)c1ccc(Nc2nc(OC3CCCC3)c3c(-c4ccc5nc(C)oc5c4)c[nH]c3n2)c(OC)c1 yielded a viability, T/C of 26.8%.
